From US8188130B1, “Anti-cancer hydantoin compounds and methods” (University of Louisiana at Monroe, priority 2008, dated 2012) come the findings set out here.

Where no end group is shown, it is not given here. Some results are limits rather than exact numbers.

Data set [1] relates to PC-3M cells. The experiment in a line: Growth rate of PC-3M cells by cell counting (correction for invasion assay). The note with it: vehicle control=1; cultured 1-24 hours. The format is cell-based. How it is done:
Invasion assays were used to identify compounds with antimetastatic activity. Invasion assays were performed on a control group, a calcitonin (CT) stimulated group, a drug treated group and a group that was both drug treated and CT stimulated. The assay employed two-compartmented Boyden invasion chambers sold under the trademark MATRIGEL. The assay conditions were as follows: exponentially growing PC cells were serum-starved for 24 hours with basal incubation medium. Serum-starved cells were then seeded at a density of 25×10^3 cells/well in the upper insert of the invasion chamber. The lower chamber received the chemoattractant medium, which consisted of 90% basal RPMI medium and 10% conditioned medium from the cultures of PC-3M cells expressing constitutively active Gsa protein as described in Chien, J., Wong, E., Nikes, E., Noble, M. J., Pantazis, C. […] The number of cells migrated on the outer bottom side of the insert were counted under the microscope in six or more randomly selected fields (magnification: 100×). The final results were expressed as mean+/−SEM number of invaded cells per 100× field. […] To correct this, the growth rate was determined for PC-3M cells under identical culture conditions. […] Mean percent increase in the cell number was determined by counting the net increase in the number of cells. […]

In data set [2] the test system is PC-3M cells. As to the kind of experiment: Invasion assay (Matrigel Boyden invasion chambers). The format is cell-based. The settings on record: 24 hours, FIG. 2. How it is done: Invasion assays were used to identify compounds with antimetastatic activity. Invasion assays were performed on a control group, a calcitonin (CT) stimulated group, a drug treated group and a group that was both drug treated and CT stimulated. The assay employed two-compartmented Boyden invasion chambers sold under the trademark MATRIGEL. The assay conditions were as follows: exponentially growing PC cells were serum-starved for 24 hours with basal incubation medium. Serum-starved cells were then seeded at a density of 25×10^3 cells/well in the upper insert of the invasion chamber. The lower chamber received the chemoattractant medium, which consisted of 90% basal RPMI medium and 10% conditioned medium from the cultures of PC-3M cells expressing constitutively active Gsa protein as described in Chien, J., Wong, E., Nikes, E., Noble, M. J., Pantazis, C. G., and Shah, G. V. (1999) Oncogene 18(22), 3376-3382 which is incorporated herein by reference. The incubations were carried out for 24 hours, after which the basement matrix protein or Matrigel™ (along with non-invading cells) was scraped off with cottonswabs, and the outer side of the insert was fixed and stained using hemaoxylin staining sold under the trademark Diff Quick (Dade Behring Diagnostics, Aguada, PR). The number of cells migrated on the outer bottom side of the insert were counted under the microscope in six or more randomly selected fields (magnification: 100×). The final results were expressed as mean+/−SEM number of invaded cells per 100× field. Each experiment was done in triplicates, and the experiment was repeated twice. […] To correct this, the growth rate was determined for PC-3M cells under identical culture conditions. 25×10^3 cells were plated at hourly intervals in six-well dishes and cultured for 1-24 hours. Mean percent increase in the cell number was determined by counting the net increase in the number of cells. […] This correction was applied to the results of invasion assays.

The subject of data set [3] is PC-3M cells. As to the kind of experiment: MTT assay, cell proliferation. Type of data set: cell-based. As to the method: MTT assays were used to measure effect of the tested drugs on tumor growth. MTT assays were performed on a control group, a calcitonin (CT) stimulated group, a group treated with compound 1 (drug treated), and a group that was both drug treated and CT stimulated. Conditions for the MTT assay were as follows: Exponentially growing cells were plated in a 96-well plate at a density of 8×10^3 cells per well, and cultured for 24 hours in complete growth medium (RPMI 1640 containing 10% fetal bovine, 10 mM HEPES, 4 mM L-glutamine, 100 IU/ml penicillin G and 100 μg/ml streptomycin). The complete growth medium was then replaced with 100 μl of basal incubation medium (RPMI 1640 containing 0.1% BSA, 10 mM HEPES, 4 mM L-glutamine, 100 IU/ml penicillin G and 100 μg/ml streptomycin). The cells were then treated with test compounds (dissolved in basal incubation medium), and the culture was continued at 37° C. under 5% CO2 for 24 hours. The cells were then treated with MTT solution at 37° C. for 4 h, and the color reaction was stopped with the stop solution (10% sodium dodecyl sulfate solution in 0.01 M hydrochloric acid) (100 μl/well). The incubation at 37° C. was continued until the formazan product was completely dissolved. Absorbance of the samples was determined at 595 nm with an ELISA plate reader (Bio-Rad, Hercules, Calif.).
In general terms: Tetrazolium assays rely on reduction of a dye to a coloured formazan, in cell work by metabolically active cells.

Data set [4] deals with PC-3M cells over expressing CT. The experiment in a line: Xenograft testing, orthotopic implant in athymic nude mice. The format is in vivo. The settings on record: compound 1 200 μg/day, compound 2 40 μg/day; for average life-expectancy: intraperitoneally every other day, untreated 54 days, ± SEM; for tumor growth in secondary organs (metastases): intraperitoneally, FIG. 5. An excerpt:
In vivo xenograft testing was done on athymic nude mice to measure the anti-cancer effect of various compounds. PC-3M prostate cells were used that contain a red fluorescence protein from gene transfer to facilitate tracking of cancer cells. The red fluorescence protein used is described in Yang, M., Baranov, E., Wang, J. W., Jiang, P., Wang, X., Sun, F. X., Bouvet, M., Moossa, A. R., Penman, S., and Hoffman, R. M. (2002) Proc Natl Acad Sci U S A 99(6), 3824-3829, which is incorporated herein by reference. 1×10^5 PC-3M cells over expressing CT were implanted in 30 day old mice orthotopically, that is the prostate cancer cells were implanted into the prostate of the mice. The cells were then allowed to grow in their native environment allowing for metastasis into other organs such as the lymph nodes, bones and lungs. The mice, other than the control mice were injected intraperitoneally every other day. Dosing rates were 200 μg/day or 5 μg/g body weight/day-intrapertonieally for compound 1 and 40 μg/day or 1 μg/g body weight/day-intraperitoneally for compound 2. Tumor growth was measured by fluorescence imaging and the mice were sacrificed upon signs of morbidity such as immobility and high tumor burden.

Data set [5] relates to PC-3M prostate cancer cell line. As to the kind of experiment: In vitro metastasis assay (spheroid disaggregation, radial migration). Type of data set: cell-based. As to the method:
In vitro metastasis assays were conducted to determine the anti-metastatic effect of various compounds. This assay involves preparation of spheroids approximately […] in diameter of cancer cells cultured on an extracellular matrix. In 24 hours, only metastatic cells disaggregate from the spheroid and start radial migration. Thus, lower measurements of radial migration are indicative of greater effectiveness of the drug/compound. Spheroids were prepared from single cell suspension of prostate cell lines as described before in Gondi, C. S., Lakka, S. S., Yanamandra, N., Olivero, W. C., Dinh, D. H., Gujrati, M., Tung, C. H., Weissleder, R., and Rao, J. S. (2004) Cancer Res 64(12), 4069-4077 and in Thomas, S., Chiriva-Internati, M., and Shah, G. V. (2007) Clin Exp Metastasis 24(5), 363-377 both of which are incorporated herein by reference. 5×10^4/ml cells in RPMI 1640 serum-free medium were placed on 96-well low-attachment tissue culture plates. The plates were rocked on gyrotory shaker in a CO2 incubator at 37° C. for 2 days, at the end of which the spheroids measuring 150-300 μm in diameter (˜4×10^4 cells/spheroid) were formed. A single spheroid was then placed in the center of each well of extracellular-matrix-coated 24-well microplate in […] of serum-free medium. From previous studies, it was determined that 1 hour was an appropriate time for spheroids to begin adhering to an extracellular matrix. Thus, t=0 was set as 1 hour from initial plating, so that if the plate was not disturbed, the spheroids would not move from their location at the time of plating. Spheroids were digitally photographed at t=0, cultured at 37° C. for 48 h and then re-photographed. […] The diameter of the area covered with cells migrated from the spheroids was measured in a microscope calibrated with a stage and ocular micrometer. The radial distance of migration was calculated after subtraction of the mean initial spheroidal diameter at t=0.

The next data set concerns prostate tumors. As to the kind of experiment: Testing of transgenic LPB-Tag mice that spontaneously form prostate tumors. The format is in vivo. The settings on record: 80 μg/week intraperitoneally. An excerpt: In vivo testing was done on transgenic mice that spontaneously form prostate tumors to measure the anti-cancer effect of compound 2. The mice used were LPB-Tag mice of the type described in Kasper, S., and Smith, J. A., Jr. (2004) J Urol 172(1), 12-19 which is incorporated herein by reference. The mice were originally developed by Dr. Robert Matusik of Vanderbilt University. LPB-Tag mice are generated by the targeted expression of SV40 large T-antigen (Tag) in the prostate using androgen-regulated, prostate-specific large probasin (LPB) gene promoter. The mice develop PIN lesions as well as extensive prostate adenocarcinomas in adulthood. The mice had their p53 gene knocked out and T-antigen selectively targeted to the prostate. Therefore, the mice begin to develop prostate tumors spontaneously as they approached the age of 50 days (adulthood), the tumors gradually grew and became very large at the age of 90 days. Mice were sacrificed around day 90 and their prostates and other organs were harvested for studying tumor characteristics and histology. Compound 2 was delivered at a dosing of 80 μg/week or 2 μg/g body weight/week-intraperitoneally. […] These tests indicate that compounds of this invention may be used as a chemopreventive for high risk patients.

As to “calcitonin (CGNLSTCMLGTYTQDFNKFHTFPQTAIGVGAP; ends and bridges not checked; cysteine pairing not given here; UniProt P01258 85-116, looked up) [CT, calcitonin (CT), used to stimulate proliferation, invasion and metastasis of PC-3M cells, reference compound]”, in the data set on PC-3M cells [1], the “relative CT-induced increase in cell number, pooled results of all time points” value was 1.19. The “invasion of PC-3M cells” value with PC-3M cells [2] (CT 50 nM) was “significantly increased”.

Turning to `O=C1NC(=O)/C(=C/c2ccc(O)cc2)N1` [compound 1, (Z)-5-(4-hydroxybenzylidene)imidazolidine-2,4-dione], in the data set on PC-3M cells [3] (50 μM, 24 hours, CT stimulated, FIG. 1), the “rate of CT stimulated cell proliferation” value is “moderate but significant decline”. Besides, in the data set on PC-3M cells [3] (50 μM, 24 hours, baseline (no CT), FIG. 1), the “rate of baseline cell proliferation” value is listed as “moderate but significant decline”. Moreover, the “dosage rate until which no cytotoxic effect on PC-3M cells” value in the data set on PC-3M cells [3] (PC-3M cells) was at least 500 µM. For the same compound, in data set [4], the average life-expectancy is on record as 61.44 days and the “tumor growth in secondary organs (metastases)” value is reported as “completely prevented tumor growth in most secondary organs”. In the data set on PC-3M cells [2] (50 μM, no CT), the baseline invasion result is given as “did not affect baseline invasion”. In addition, in the data set with PC-3M cells [2] (50 μM, CT 50 nM), the CT-stimulated invasion entry is given as “almost abolished CT-stimulated invasion”. In addition, the “dose until which no cytotoxicity” value in data set [5] was at least 500 µM. In addition, in data set [5] (50 μM), the “disaggregation and migration of cells from spheroids” value was “did not disaggregate or migrate”. In data set [5] (multiple doses, distances migrated by the cells), this compound showed an effective dose range of 25 to 200 µM.

Turning to `CCSc1ccc(/C=C2\NC(=O)NC2=O)cc1` [compound 2, (Z)-5-(4-S-ethylbenzylidene)imidazolidine-2,4-dione], the increased survival result with prostate tumors is reported as “at least 1 week”. In addition, in the data set with prostate tumors (sacrificed around day 90), the “decrease of tumor size measured at necropsy compared to diluents treated mice” value stood at 62%. In data set [4], the average life-expectancy came out at 66 ± 1 days and the “tumor growth in secondary organs (metastases)” value is on record as “completely prevented tumor growth in most secondary organs”.
